{"source": "patent US7750024B2", "about": "“Remedy for glioblastoma” (Astellas Pharma Inc., priority 2002, dated 2010)", "key": {"[1]": {"tested_on": "Human glioblastoma cell (CGNH-89 cell line)", "assay": "Apoptosis by TUNEL method in human glioblastoma cells in vitro", "type": "cell-based", "method": "(§1) Human glioblastoma cell (CGNH-89 cell line) was used at this experiment. These cells were randomly divided in the following three groups: a group of a glutamate-free medium (no glutamate group; control group); a group of the glutamate-free medium added 100 μM glutamate (100 μM glutamate group); a group of the glutamate-free medium added 100 μM glutamate and 20 μM NBQX (100 μM glutamate+20 μM NBQX group). The cells were incubated for 48 hours. The CGNH-89 cell was cultured in DMEM (Dulbecco's modified Eagle's medium) supplemented with 10% dialyzed fetal calf serum.\n(§2) CGNH-89 cell line was established through resection from the tumor at the right front lobe of a person according to the Explant method by Nicolas et al. (Science 196, 60-63, 1977). […] Additionally, the mRNAs of GluR1 through GluR4 were analyzed with antibodies against the AMPA receptor subunits GluR1, GluR2, GluR3 and GluR4 and RT-PCR. Consequently, the cell line expresses GluR1 and GluR4 but not expresses GluR2 and GluR3. As described above, the cell line has the same profile as that of the cell of primary glioblastoma de novo.\n(§3) The anti-tumor action was evaluated by calculating the apoptosis score by TUNEL method (terminal deoxynucleotide transferase (TdT)-mediated dUTP nick end labeling) 48 hours after culturing. Additionally, proliferation of the human glioblastoma cell was evaluated, using the antibody Ki67.\n(§4) The results are shown as mean±standard deviation and statistically analyzed by the Student's t-test. Significance level was set at p<0.05."}, "[2]": {"tested_on": "Human glioblastoma cell (CGNH-89 cell line)", "assay": "Proliferation of human glioblastoma cells by Ki67 antibody staining in vitro", "type": "cell-based", "method": "as §1, §2, §3, §4"}, "C6 and RG2 glioma": {"tested_on": "C6 and RG2 glioma", "settings": "C6 and RG2 glioma transplanted rats; cited from earlier work"}, "[3]": {"tested_on": "CGNH-89 human glioblastoma", "assay": "Growth inhibition on glioblastoma in vivo, CGNH-89 transplanted subcutaneously in nude mice", "settings": "100 mg/kg intraperitoneally for 14 days vs PBS; days 11 and 13 after onset and days 2, 4, 6, 8 after completion of administration", "method": "Nude mice (5-6 weeks old) were used at this experiment. 10^7 cells of CGNH-89 used in Example 1 were transplanted subcutaneously in the nude mice. On the next day of transplantation, the mice were divided randomly in two groups; a group (n=12) to be administered with 100 mg/kg compound A and a group (n=12) to be administered with PBS (phosphate buffered saline). The drug was administered repeatedly intraperitoneally for 14 days starting on the next day of transplantation. Up to day 8 after the completion of the administration, the mice were observed. The tumor size was measured every two days with a vernier micrometer, to calculate the volume according to the formula (length×width^2)×½.\nThe results are shown in mean±standard deviation and statistically analyzed by the Student's t-test. The significance level was set at p<0.05."}, "[4]": {"settings": "100 μM glutamate alone added to glutamate-free medium, 48 hours"}, "[5]": {"settings": "20 μM NBQX + 100 μM glutamate, 48 hours incubation, mean±SD"}, "[6]": {"settings": "20 μM NBQX with 100 μM glutamate, 48 hours"}}, "note": "Several values for one entry are separate records, joined by “and”; a condition that tells them apart may be missing. Equal entries are not always repeated."}
{"compound": "N[C@@H](CCC(=O)O)C(=O)O", "note": "[glutamate]", "values": [{"measurement": "TUNEL-SCORE (ratio of apoptosis)", "setting": "[1]; [4]", "value": "3% and 3.0 ± 2.0%"}, {"measurement": "staining index with Ki-67 (proliferation inhibiting activity)", "setting": "[2]; [4]", "value": "18.5% and 18.5 ± 3.0%"}]}
{"compound": "C[C@]12N[C@H](Cc3ccccc31)c1ccccc12", "note": "[MK-801]", "values": [{"measurement": "proliferation inhibition", "setting": "C6 and RG2 glioma", "value": "exert a proliferation inhibition"}]}
{"compound": "O.O=C(O)Cn1c(=O)c(=O)[nH]c2cc([N+](=O)[O-])c(-n3ccnc3)cc21", "note": "[Compound A, [7-(1H-imidazol-1-yl)-6-nitro-2,3-dioxo-3,4-dihydroquinoxalin-1 (2H)-yl]acetic acid•monohydrate]", "values": [{"measurement": "tumor growth inhibition (tumor volume)", "setting": "[3]", "value": "significant tumor growth inhibition"}]}
{"compound": "NS(=O)(=O)c1cccc2c1c([N+](=O)[O-])cc1nc(O)c(O)nc12", "note": "[NBQX, 2,3-dihydroxy-6-nitro-7-sulfamoyl-benzo(F)-quinoxaline]", "values": [{"measurement": "TUNEL-SCORE (ratio of apoptosis)", "setting": "[1]; [5]", "value": "13.0 ± 2.0", "unit": "%"}, {"measurement": "effect on glutamate-induced suppression of apoptosis", "setting": "[1]; [6]", "value": "induced the apoptosis"}, {"measurement": "staining index with Ki-67 (proliferation inhibiting activity)", "setting": "[2]; [5]", "value": "2.0 ± 1.0", "unit": "%"}, {"measurement": "effect on glutamate-induced proliferative activity", "setting": "[2]; [6]", "value": "suppressed the glutamate-induced proliferative activity"}]}
{"compound": "CC12CC3CC(C)(C1)CC(N)(C3)C2", "note": "[memantin]", "values": [{"measurement": "proliferation inhibition", "setting": "C6 and RG2 glioma", "value": "exert a proliferation inhibition"}]}
